Experimental data from ChEMBL document CHEMBL4834430, “Design and Structure-Activity Relationships of Isothiocyanates as Potent and Selective N-Acylethanolamine-Hydrolyzing Acid Amidase Inhibitors” (J Med Chem, 2021).
The source made the active and inactive calls. No cut-off for these calls is given here.

Columns and labels:
[1] = Drug concentration in brain of CD-1 mouse at 2 mg/kg, iv administered as single cassette dose measured after 15 mins; format: ADME, organism-based; conditions: read-out: Ct
Cathepsin K = molecular target: T1, Cathepsin K (Homo sapiens, UniProt P43235); assay: Inhibition of recombinant human Cathepsin K using Z-Phe-Arg-AMC as fluorogenic substrate preincubated for 120 mins followed by substrate addition by fluorescence assay
T1 sequence (P43235 whole entry): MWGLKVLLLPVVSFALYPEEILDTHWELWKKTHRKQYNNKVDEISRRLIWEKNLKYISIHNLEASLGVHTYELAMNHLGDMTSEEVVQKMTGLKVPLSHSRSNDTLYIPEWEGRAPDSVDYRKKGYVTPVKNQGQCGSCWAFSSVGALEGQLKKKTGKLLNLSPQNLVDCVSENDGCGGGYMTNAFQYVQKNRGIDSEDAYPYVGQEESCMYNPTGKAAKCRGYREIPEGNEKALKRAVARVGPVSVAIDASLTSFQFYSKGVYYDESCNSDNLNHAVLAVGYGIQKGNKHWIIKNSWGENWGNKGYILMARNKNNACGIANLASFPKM

[2] = Half life in human liver microsomes at 1 uM in presence of NADPH by LC-MS/MS analysis; format: ADME, Microsome
[3] = Half life in rat liver microsomes at 1 uM in presence of NADPH by LC-MS/MS analysis; format: ADME, Microsome
[4] = Half life in mouse liver microsomes at 1 uM in presence of NADPH by LC-MS/MS analysis; format: ADME, Microsome
[5] = Drug concentration in plasma of CD-1 mouse at 2 mg/kg, iv administered as single cassette dose measured after 15 mins; format: ADME, organism-based
[6] = Drug concentration in plasma of CD-1 mouse at 8 mg/kg, po administered as single cassette dose measured after 30 mins; format: ADME, organism-based
[7] = Drug concentration in plasma of CD-1 mouse at 8 mg/kg, po administered as single cassette dose measured after 60 mins; format: ADME, organism-based
[8] = AUC in CD-1 mouse plasma at 2 mg/kg, iv measured up to 8 hrs; format: ADME, organism-based; parameters: route intravenous, dose 2 mg/kg, time <=8
[9] = Clearance in CD-1 mouse plasma at 2 mg/kg, iv measured up to 8 hrs; format: ADME, organism-based
[10] = Volume of distribution in CD-1 mouse plasma at 2 mg/kg, iv measured up to 8 hrs; format: ADME, organism-based
[11] = Half life in CD-1 mouse plasma at 2 mg/kg, iv measured up to 8 hrs; format: ADME, organism-based
[12] = AUC in CD-1 mouse plasma at 8 mg/kg, po measured up to 8 hrs; format: ADME, organism-based; parameters: route oral, dose 8 mg/kg, time <=8
[13] = Clearance in CD-1 mouse plasma at 8 mg/kg, po measured up to 8 hrs; format: ADME, organism-based
[14] = Volume of distribution in CD-1 mouse plasma at 8 mg/kg, po measured up to 8 hrs; format: ADME, organism-based; conditions: in vivo
[15] = MRT in CD-1 mouse plasma at 8 mg/kg, po measured up to 8 hrs; format: ADME, organism-based
[16] = Half life in CD-1 mouse plasma at 8 mg/kg, po measured up to 8 hrs; format: ADME, organism-based
[17] = AUC in CD-1 mouse brain at 8 mg/kg, po measured up to 6 hrs; format: ADME, organism-based; parameters: route oral, dose 8 mg/kg, time <=6
[18] = Ratio of drug concentration in brain to plasma in CD-1 mouse at 2 mg/kg, iv; format: ADME, organism-based; conditions: read-out: BPR
[19] = molecular target: Cannabinoid receptor 1 (Rattus norvegicus) (UniProt P20272); assay: Displacement of [3H]-CP55940 from rat forebrain CB1 receptor at 10 uM
[20] = molecular target: Cannabinoid receptor 2 (Homo sapiens) (UniProt P34972); assay: Displacement of [3H]-CP55940 from human CB2 receptor expressed in HEK293 cell membrane at 10 uM; format: cell membranes
[21] = molecular target: Cannabinoid receptor 2 (Mus musculus) (UniProt P47936); assay: Displacement of [3H]-CP55940 from mouse CB2 receptor expressed in HEK293 cell membrane at 10 uM; format: cell membranes
[22] = molecular target: Sodium-dependent dopamine transporter (Homo sapiens) (UniProt Q01959); assay: Inhibition of DAT (unknown origin) at 10 uM
[23] = molecular target: Sodium-dependent serotonin transporter (Homo sapiens) (UniProt P31645); assay: Inhibition of SERT (unknown origin) at 10 uM
[24] = molecular target: Sodium-dependent noradrenaline transporter (Homo sapiens) (UniProt P23975); assay: Inhibition of NET (unknown origin) at 10 uM
Cytochrome P450 2D6 = Cytochrome P450 2D6 (Homo sapiens, UniProt P10635); assay: Inhibition of CYP2D6 (unknown origin) at 10 uM; format: ADME
Cytochrome P450 2A6 = molecular target: T2, Cytochrome P450 2A6 (Homo sapiens, UniProt P11509); assay: Inhibition of CYP2A6 (unknown origin) at 10 uM; format: ADME
T2 sequence (P11509 whole entry): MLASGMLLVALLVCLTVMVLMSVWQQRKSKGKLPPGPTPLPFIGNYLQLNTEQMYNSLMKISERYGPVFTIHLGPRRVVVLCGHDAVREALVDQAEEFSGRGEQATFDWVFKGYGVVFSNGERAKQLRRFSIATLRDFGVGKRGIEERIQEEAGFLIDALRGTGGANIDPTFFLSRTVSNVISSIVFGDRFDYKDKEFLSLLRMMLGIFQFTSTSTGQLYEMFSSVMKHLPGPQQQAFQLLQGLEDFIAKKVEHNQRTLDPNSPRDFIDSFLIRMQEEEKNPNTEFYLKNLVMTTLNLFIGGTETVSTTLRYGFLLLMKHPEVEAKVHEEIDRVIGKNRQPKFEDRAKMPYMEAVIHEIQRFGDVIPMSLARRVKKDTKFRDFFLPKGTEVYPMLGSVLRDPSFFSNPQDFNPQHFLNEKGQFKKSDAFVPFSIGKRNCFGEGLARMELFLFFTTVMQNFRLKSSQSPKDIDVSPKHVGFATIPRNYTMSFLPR

Cytochrome P450 2C9 = Cytochrome P450 2C9 (Homo sapiens, UniProt P11712); assay: Inhibition of CYP2C9 (unknown origin) at 10 uM; format: ADME
Cytochrome P450 2C19 = Cytochrome P450 2C19 (Homo sapiens, UniProt P33261); assay: Inhibition of CYP2C19 (unknown origin); format: ADME
Cytochrome P450 3A4 = Cytochrome P450 3A4 (Homo sapiens, UniProt P08684); assay: Inhibition of CYP3A4 (unknown origin); format: ADME
[25] = molecular target: Voltage-gated inwardly rectifying potassium channel KCNH2 (Homo sapiens, UniProt Q12809); assay: Inhibition of human ERG
[26] = Mutagenecity in Salmonella typhimurium TA98 in absence of S9 fraction at 5 to 100 uM by Ames test; format: toxicity; conditions: salmonella enterica subsp. enterica serovar typhimurium, s9, 100 µM; dose 5-100 µM
[27] = Mutagenecity in Salmonella typhimurium TA1535 in presence of S9 fraction at 5 to 100 uM by Ames test; format: toxicity, subcellular; conditions: salmonella enterica subsp. enterica serovar typhimurium, s9, 100 µM; dose 5-100 µM
[28] = Mutagenecity in Salmonella typhimurium TA1535 in absence of S9 fraction at 5 to 100 uM by Ames test; format: toxicity; conditions: salmonella enterica subsp. enterica serovar typhimurium, s9, 100 µM; dose 5-100 µM
[29] = Ratio of drug concentration in brain to plasma in CD-1 mouse at 8 mg/kg, po; format: ADME, organism-based; conditions: read-out: BPR

Chain of Cytochrome P450 2C9 (P11712 whole entry): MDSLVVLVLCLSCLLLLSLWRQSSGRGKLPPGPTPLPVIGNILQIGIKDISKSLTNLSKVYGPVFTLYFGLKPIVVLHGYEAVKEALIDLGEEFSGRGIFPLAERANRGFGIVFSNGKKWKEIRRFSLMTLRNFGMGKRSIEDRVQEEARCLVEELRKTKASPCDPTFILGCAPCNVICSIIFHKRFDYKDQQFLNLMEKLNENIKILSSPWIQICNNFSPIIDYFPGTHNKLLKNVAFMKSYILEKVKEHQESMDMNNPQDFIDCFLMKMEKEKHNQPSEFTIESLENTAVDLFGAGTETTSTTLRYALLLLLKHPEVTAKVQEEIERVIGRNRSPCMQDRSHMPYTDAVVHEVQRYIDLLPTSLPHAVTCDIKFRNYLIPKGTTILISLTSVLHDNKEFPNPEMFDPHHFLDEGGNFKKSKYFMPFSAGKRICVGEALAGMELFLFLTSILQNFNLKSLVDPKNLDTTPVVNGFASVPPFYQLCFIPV
Chain of Cannabinoid receptor 2 (Homo sapiens) (P34972 whole entry): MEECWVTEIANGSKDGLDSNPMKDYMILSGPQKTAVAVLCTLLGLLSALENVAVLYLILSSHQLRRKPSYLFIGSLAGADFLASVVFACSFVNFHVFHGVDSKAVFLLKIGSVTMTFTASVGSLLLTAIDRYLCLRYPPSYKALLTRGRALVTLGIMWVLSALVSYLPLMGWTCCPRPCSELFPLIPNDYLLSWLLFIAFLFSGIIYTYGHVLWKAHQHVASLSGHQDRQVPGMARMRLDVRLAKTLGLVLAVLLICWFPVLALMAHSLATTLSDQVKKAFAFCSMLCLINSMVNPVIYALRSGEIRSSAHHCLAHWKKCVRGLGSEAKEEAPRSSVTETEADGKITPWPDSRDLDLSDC
Chain of Sodium-dependent serotonin transporter (Homo sapiens) (P31645 whole entry, looked up): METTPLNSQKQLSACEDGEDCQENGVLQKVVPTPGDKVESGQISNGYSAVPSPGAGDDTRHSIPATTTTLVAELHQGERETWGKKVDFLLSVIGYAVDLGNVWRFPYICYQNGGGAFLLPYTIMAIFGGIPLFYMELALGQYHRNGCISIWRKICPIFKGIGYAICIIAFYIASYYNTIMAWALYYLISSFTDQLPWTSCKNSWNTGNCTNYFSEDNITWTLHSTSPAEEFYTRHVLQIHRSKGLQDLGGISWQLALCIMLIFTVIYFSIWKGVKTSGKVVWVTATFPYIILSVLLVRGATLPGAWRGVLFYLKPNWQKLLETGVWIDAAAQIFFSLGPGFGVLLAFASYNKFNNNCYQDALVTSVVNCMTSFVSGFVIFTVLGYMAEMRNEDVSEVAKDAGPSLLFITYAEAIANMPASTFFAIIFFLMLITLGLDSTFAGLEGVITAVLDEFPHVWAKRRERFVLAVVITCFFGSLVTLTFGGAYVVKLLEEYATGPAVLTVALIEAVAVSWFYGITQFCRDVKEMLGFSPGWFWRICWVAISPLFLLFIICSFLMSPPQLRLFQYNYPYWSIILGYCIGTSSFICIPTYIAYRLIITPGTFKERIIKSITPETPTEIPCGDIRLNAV
Chain of Sodium-dependent dopamine transporter (Homo sapiens) (Q01959 whole entry): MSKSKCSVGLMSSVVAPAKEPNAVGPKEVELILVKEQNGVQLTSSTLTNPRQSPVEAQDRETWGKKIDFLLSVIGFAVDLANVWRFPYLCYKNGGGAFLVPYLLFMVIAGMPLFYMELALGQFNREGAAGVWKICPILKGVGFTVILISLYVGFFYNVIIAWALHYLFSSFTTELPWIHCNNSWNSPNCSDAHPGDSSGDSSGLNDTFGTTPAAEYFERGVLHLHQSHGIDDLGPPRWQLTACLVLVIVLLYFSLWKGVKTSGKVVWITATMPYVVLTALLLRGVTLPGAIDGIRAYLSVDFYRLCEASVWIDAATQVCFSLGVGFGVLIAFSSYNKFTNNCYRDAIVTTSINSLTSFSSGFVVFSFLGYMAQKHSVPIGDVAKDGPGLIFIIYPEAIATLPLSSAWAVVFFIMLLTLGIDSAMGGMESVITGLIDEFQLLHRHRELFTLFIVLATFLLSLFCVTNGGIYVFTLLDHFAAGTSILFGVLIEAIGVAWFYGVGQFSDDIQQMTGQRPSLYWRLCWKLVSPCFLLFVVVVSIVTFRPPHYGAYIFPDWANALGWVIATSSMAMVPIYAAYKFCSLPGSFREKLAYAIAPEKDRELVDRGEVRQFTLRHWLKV
Chain of Sodium-dependent noradrenaline transporter (Homo sapiens) (P23975 whole entry): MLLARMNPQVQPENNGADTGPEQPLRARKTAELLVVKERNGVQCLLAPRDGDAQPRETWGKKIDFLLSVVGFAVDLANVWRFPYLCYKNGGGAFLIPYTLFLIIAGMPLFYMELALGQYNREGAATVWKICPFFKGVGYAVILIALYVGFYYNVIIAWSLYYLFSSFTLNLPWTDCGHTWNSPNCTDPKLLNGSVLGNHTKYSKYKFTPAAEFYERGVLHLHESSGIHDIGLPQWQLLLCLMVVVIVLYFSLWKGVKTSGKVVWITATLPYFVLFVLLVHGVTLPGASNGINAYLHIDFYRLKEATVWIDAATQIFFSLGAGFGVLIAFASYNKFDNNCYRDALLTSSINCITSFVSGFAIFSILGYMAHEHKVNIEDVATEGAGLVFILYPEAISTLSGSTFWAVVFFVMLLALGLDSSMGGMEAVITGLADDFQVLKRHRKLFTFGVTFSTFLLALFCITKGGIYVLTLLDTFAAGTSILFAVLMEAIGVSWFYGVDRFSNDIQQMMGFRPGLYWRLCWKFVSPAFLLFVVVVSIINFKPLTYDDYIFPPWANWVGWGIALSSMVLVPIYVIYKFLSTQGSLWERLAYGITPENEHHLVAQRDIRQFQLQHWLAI
Chain of Cytochrome P450 2D6 (P10635 whole entry): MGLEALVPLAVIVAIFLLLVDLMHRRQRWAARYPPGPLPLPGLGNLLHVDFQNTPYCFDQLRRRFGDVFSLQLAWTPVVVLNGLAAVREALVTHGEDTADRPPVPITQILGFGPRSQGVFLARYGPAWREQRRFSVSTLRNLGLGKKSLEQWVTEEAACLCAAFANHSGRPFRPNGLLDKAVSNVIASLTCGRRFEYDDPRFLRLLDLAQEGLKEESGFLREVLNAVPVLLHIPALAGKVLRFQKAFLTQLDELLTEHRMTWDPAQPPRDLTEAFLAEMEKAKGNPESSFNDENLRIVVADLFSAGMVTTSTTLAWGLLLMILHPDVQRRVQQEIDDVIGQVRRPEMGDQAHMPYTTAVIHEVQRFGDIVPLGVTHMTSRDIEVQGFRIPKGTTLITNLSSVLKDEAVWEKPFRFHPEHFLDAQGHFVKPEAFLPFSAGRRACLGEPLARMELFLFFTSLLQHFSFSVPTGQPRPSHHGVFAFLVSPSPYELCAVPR
Chain of Cannabinoid receptor 1 (Rattus norvegicus) (P20272 whole entry): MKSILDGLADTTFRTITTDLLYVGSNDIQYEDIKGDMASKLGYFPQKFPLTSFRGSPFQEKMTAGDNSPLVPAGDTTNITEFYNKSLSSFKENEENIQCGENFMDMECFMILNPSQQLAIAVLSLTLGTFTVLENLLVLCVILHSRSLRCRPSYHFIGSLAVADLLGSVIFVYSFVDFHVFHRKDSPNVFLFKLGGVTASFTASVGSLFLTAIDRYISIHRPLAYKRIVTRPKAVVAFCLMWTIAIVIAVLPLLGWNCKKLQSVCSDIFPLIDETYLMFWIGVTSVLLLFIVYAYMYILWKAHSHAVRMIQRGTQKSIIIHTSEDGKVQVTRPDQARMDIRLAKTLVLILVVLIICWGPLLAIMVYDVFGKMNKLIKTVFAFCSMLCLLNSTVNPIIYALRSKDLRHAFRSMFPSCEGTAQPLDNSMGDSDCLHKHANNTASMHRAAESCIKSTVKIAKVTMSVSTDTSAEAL
Chain of Cannabinoid receptor 2 (Mus musculus) (P47936 whole entry): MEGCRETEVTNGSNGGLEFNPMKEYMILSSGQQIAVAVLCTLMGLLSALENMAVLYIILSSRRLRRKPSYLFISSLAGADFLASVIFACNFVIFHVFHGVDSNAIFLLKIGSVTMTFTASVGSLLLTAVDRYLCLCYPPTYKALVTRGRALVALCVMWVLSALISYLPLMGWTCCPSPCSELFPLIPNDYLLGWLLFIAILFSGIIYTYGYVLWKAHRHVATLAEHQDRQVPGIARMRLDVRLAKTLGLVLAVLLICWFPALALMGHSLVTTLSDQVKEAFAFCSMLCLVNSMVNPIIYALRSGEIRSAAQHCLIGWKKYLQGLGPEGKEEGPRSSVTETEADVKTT
Chain of Cytochrome P450 3A4 (P08684 whole entry): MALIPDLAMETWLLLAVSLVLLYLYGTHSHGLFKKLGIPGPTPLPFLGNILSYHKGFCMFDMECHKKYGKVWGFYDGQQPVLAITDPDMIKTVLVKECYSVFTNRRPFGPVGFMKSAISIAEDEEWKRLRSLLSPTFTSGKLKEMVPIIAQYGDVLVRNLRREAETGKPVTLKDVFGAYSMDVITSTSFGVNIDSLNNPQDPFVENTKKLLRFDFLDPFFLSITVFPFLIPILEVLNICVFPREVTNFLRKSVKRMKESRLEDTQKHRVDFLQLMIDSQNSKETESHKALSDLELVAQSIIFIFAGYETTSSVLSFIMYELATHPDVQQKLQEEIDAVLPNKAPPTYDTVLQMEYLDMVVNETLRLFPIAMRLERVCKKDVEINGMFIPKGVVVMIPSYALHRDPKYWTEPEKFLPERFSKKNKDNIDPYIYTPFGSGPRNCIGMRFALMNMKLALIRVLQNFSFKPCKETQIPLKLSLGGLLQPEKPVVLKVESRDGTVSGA

Which results are given for COc1ccc(-c2ccc(CO[C@H]3C[C@@H](N=C=S)C3)nc2)cc1F?
concentration at 0.25 h [1]: 873 ng/g; IC50 (Cathepsin K): 0.12 µM; half-life at 1 µM [2]: 16.7 min; half-life at 1 µM [3]: 19.2 min; half-life at 1 µM [4]: 28.2 min; concentration at 0.25 h [5]: 189 ng/mL; concentration at 0.5 h [6]: 16 ng/mL; concentration at 1 h [7]: 54 ng/mL; AUC at 8 h [8]: 78.5 ng·h/mL; clearance [9]: 412 mL/min/kg; Vd [10]: 27 L/kg; half-life [11]: 45.5 min; AUC at 8 h [12]: 41.3 ng·h/mL; CL/F [13]: 2760 mL/min/kg; Vd [14]: 126 L/kg; MRT [15]: 64.2 min; half-life [16]: 31.5 min; AUC at 6 h [17]: 10.3 ng·h/mL; Kp [18]: 3.8; inhibition [19]: inactive; inhibition [20]: inactive; inhibition [21]: inactive; inhibition [22]: inactive; inhibition [23]: inactive; inhibition [24]: inactive; inhibition (INH) (Cytochrome P450 2D6): Not Active; inhibition (INH) (Cytochrome P450 2A6): Not Active; inhibition (INH) (Cytochrome P450 2C9): Not Active; IC50 (Cytochrome P450 2C19): 3.3 µM; IC50 (Cytochrome P450 3A4): 2.6 µM; IC50 [25]: 19 µM; Activity [26]: Non-Toxic; Activity [27]: Non-Toxic; Activity [28]: Non-Toxic; Kp [29]: 0.25
